Consider 32 compounds from patent US9694016B2 (Novartis AG, priority 2013, dated 2017).

The target in this assay is b-Raf (V600E) (Homo sapiens (Human), UniProt P15056, V600E). The note with it: read-out: b-Raf IC-50; AlphaScreen, 60 min pre-incubation, reaction 3 hours at room temperature. For orientation: Alpha assays give light when donor and acceptor beads are brought close together.
Chain of b-Raf (V600E) (P15056 whole entry V600E): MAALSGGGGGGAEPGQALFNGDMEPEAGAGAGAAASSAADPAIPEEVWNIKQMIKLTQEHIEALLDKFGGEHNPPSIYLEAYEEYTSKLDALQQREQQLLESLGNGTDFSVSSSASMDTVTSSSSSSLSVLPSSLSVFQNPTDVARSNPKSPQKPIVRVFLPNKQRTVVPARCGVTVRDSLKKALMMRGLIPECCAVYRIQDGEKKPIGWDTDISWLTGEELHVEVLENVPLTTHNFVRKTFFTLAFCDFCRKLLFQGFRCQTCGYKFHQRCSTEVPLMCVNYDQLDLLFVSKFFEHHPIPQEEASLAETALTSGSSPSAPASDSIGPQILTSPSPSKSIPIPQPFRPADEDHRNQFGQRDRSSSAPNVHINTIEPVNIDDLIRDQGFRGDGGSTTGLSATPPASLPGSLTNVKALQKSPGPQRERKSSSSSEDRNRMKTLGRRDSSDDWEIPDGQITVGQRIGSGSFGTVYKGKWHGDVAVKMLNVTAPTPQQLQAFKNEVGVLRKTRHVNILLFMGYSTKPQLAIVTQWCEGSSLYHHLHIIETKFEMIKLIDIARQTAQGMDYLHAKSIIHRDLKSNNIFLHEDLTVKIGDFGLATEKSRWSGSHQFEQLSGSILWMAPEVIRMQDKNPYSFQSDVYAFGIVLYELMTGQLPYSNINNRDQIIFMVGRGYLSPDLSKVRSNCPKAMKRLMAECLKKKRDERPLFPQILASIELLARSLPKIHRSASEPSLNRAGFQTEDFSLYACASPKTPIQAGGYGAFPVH
Consider `Cc1ncc(NC(=O)c2ccnc(C(C)(C)F)c2)cc1-c1cc(N2CCOCC2)c(S(C)(=O)=O)nn1` [Example 927, 2-(2-fluoropropan-2-yl)-N-(6-methyl-5-(6-(methylsulfonyl)-5-morpholinopyridazin-3-yl)pyridin-3-yl)isonicotinamide], for which the IC50 stood at 7.91 nM. As to `Cc1ccc(NC(=O)c2ccnc(C(C)(C)F)c2)cc1-c1cc(N2CCOCC2)c(S(C)(=O)=O)nn1` [Example 928, 2-(2-fluoropropan-2-yl)-N-(4-methyl-3-(6-(methylsulfonyl)-5-morpholinopyridazin-3-yl)phenyl)isonicotinamide], the IC50 turned out to be 1.9 nM. Turning to `Cc1ccc(NC(=O)c2ccnc(C(C)(F)F)c2)cc1-c1cc(N2CCOCC2)c(S(C)(=O)=O)nn1` [Example 929, 2-(1,1-difluoroethyl)-N-(4-methyl-3-(6-(methylsulfonyl)-5-morpholinopyridazin-3-yl)phenyl)isonicotinamide], the IC50 stood at 1.05 nM. Regarding `Cc1ccc(NC(=O)c2ccnc(C(F)(F)F)c2)cc1-c1cc(N2CCOCC2)c(S(C)(=O)=O)nn1` [Example 930], the IC50 was 1.03 nM. To `Cc1ccc(NC(=O)c2ccnc(C(C)(C)C#N)c2)cc1-c1cc(N2CCOCC2)c(S(C)(=O)=O)nn1` [Example 931, 2-(2-cyanopropan-2-yl)-N-(4-methyl-3-(6-(methylsulfonyl)-5-morpholinopyridazin-3-yl)phenyl)isonicotinamide] belongs 2.7 nM; to `Cc1ccc(NC(=O)c2ccnc(C(C)(C)O)c2)cc1-c1cc(N2CCOCC2)c(S(C)(=O)=O)nn1` [Example 932, 2-(2-hydroxypropan-2-yl)-N-(4-methyl-3-(6-(methylsulfonyl)-5-morpholinopyridazin-3-yl)phenyl)isonicotinamide], 6.89 nM. Turning to `Cc1ccc(NC(=O)c2cc(C(F)(F)F)ccn2)cc1-c1cc(N2CCOCC2)c(S(C)(=O)=O)nn1` [Example 933, N-(4-methyl-3-(6-(methylsulfonyl)-5-morpholinopyridazin-3-yl)phenyl)-4-(trifluoromethyl)picolinamide], the IC50 amounted to 0.78 nM. Take `COc1ncc(-c2cc(NC(=O)c3cccc(C(F)(F)F)c3)nnc2C)cc1N1CCOCC1` [Example 934, N-(5-(6-methoxy-5-morpholinopyridin-3-yl)-6-methylpyridazin-3-yl)-3-(trifluoromethyl)benzamide]: the IC50 worked out at 4.2 nM. As for `Cc1ncc(NC(=O)c2cncc(C(F)(F)F)c2)cc1-c1cnc(OCC(F)F)c(N2CCOCC2)c1` [Example 935, N-(6′-(2,2-difluoroethoxy)-2-methyl-5′-morpholino-[3,3′-bipyridin]-5-yl)-5-(trifluoromethyl)nicotinamide], the IC50 is 2.04 nM. Consider `Cc1ncc(NC(=O)c2cnnc(C3(C#N)CC3)c2)cc1-c1cnc(OCC(F)F)c(N2CCOCC2)c1` [Example 936, 6-(1-cyanocyclopropyl)-N-(6′-(2,2-difluoroethoxy)-2-methyl-5′-morpholino-[3,3′-bipyridin]-5-yl)pyridazine-4-carboxamide], for which the IC50 was found to be 7.55 nM. `Cc1ncc(NC(=O)c2cccc(S(C)(=O)=O)c2)cc1-c1cnc(OC2CCOCC2)c(N2CCOCC2)c1` [Example 937, N-(2-methyl-5′-morpholino-6′-((tetrahydro-2H-pyran-4-yl)oxy)-[3,3′-bipyridin]-5-yl)-3-(methylsulfonyl)benzamide]: the IC50 came out at 4.53 nM.

Regarding `Cc1ncc(NC(=O)c2ccnc(C(C)(F)F)c2)cc1-c1cnc(OC2CCOCC2)c(N2CCOCC2)c1` [Example 938, 2-(1,1-difluoroethyl)-N-(2-methyl-5′-morpholino-6′-((tetrahydro-2H-pyran-4-yl)oxy)-[3,3′-bipyridin]-5-yl)isonicotinamide], the IC50 stood at 2.36 nM. The figure for `Cc1ncc(NC(=O)c2ccnc(C(C)(C)O)c2)cc1-c1cnc(OC2CCOCC2)c(N2CCOCC2)c1` [Example 939, 2-(2-hydroxypropan-2-yl)-N-(2-methyl-5′-morpholino-6′-((tetrahydro-2H-pyran-4-yl)oxy)-[3,3′-bipyridin]-5-yl)isonicotinamide] is 15.3 nM. On to `Cc1ncc(NC(=O)c2ccnc(C3CC3)c2)cc1-c1cnc(OC2CCOCC2)c(N2CCOCC2)c1` [Example 941, 2-cyclopropyl-N-(2-methyl-5′-morpholino-6′-((tetrahydro-2H-pyran-4-yl)oxy)-[3,3′-bipyridin]-5-yl)isonicotinamide], for which the IC50 worked out at 2.28 nM. Take `Cc1ncc(NC(=O)c2cc(C(F)(F)F)ccn2)cc1-c1cnc(OC2CCOCC2)c(N2CCOCC2)c1` [Example 942, N-(2-methyl-5′-morpholino-6′-((tetrahydro-2H-pyran-4-yl)oxy)-[3,3′-bipyridin]-5-yl)-4-(trifluoromethyl)picolinamide]: the IC50 turned out to be 2.17 nM. Regarding `Cc1ncc(NC(=O)c2cc(C(C)(C)C#N)ccn2)cc1-c1cnc(OC2CCOCC2)c(N2CCOCC2)c1` [Example 943, 4-(2-cyanopropan-2-yl)-N-(2-methyl-5′-morpholino-6′-((tetrahydro-2H-pyran-4-yl)oxy)-[3,3′-bipyridin]-5-yl)picolinamide], the IC50 is 9.51 nM. In the case of `Cc1ncc(NC(=O)c2cnnc(C3(C#N)CC3)c2)cc1-c1cnc(OC2CCOCC2)c(N2CCOCC2)c1` [Example 944, 6-(1-cyanocyclopropyl)-N-(2-methyl-5′-morpholino-6′-((tetrahydro-2H-pyran-4-yl)oxy)-[3,3′-bipyridin]-5-yl)pyridazine-4-carboxamide], the IC50 is 3.89 nM. In the case of `Cc1ccc(NC(=O)c2ccnc(C(C)(F)F)c2)cc1-c1cnc(OC(C)C)c(N2CCOCC2)c1` [Example 945, 2-(1,1-difluoroethyl)-N-(3-(6-isopropoxy-5-morpholinopyridin-3-yl)-4-methylphenyl)isonicotinamide], the IC50 turned out to be 1.35 nM. In the case of `Cc1ccc(NC(=O)c2ccnc(C(C)(C)F)c2)cc1-c1cnc(OC(C)C)c(N2CCOCC2)c1` [Example 946, 2-(2-fluoropropan-2-yl)-N-(3-(6-isopropoxy-5-morpholinopyridin-3-yl)-4-methylphenyl)isonicotinamide], the IC50 was 2.36 nM.

`Cc1ccc(NC(=O)c2ccnc(C(C)(C)O)c2)cc1-c1cnc(OC(C)C)c(N2CCOCC2)c1` [Example 947, 2-(2-hydroxypropan-2-yl)-N-(3-(6-isopropoxy-5-morpholinopyridin-3-yl)-4-methylphenyl)isonicotinamide]: the IC50 was determined as 1.76 nM.

Regarding `Cc1ccc(NC(=O)c2cc(C(C)(C)C#N)ccn2)cc1-c1cnc(OC(C)C)c(N2CCOCC2)c1` [Example 948, 4-(2-cyanopropan-2-yl)-N-(3-(6-isopropoxy-5-morpholinopyridin-3-yl)-4-methylphenyl)picolinamide], the IC50 turned out to be 2.33 nM. For the compound `Cc1ccc(NC(=O)c2cc(C(C)(C)O)ccn2)cc1-c1cnc(OC(C)C)c(N2CCOCC2)c1` [Example 949, 4-(2-hydroxypropan-2-yl)-N-(3-(6-isopropoxy-5-morpholinopyridin-3-yl)-4-methylphenyl)picolinamide], the IC50 stood at 3.63 nM. To `Cc1ccc(NC(=O)c2ccnc(S(C)(=O)=O)c2)cc1-c1cnc(OC(C)C)c(N2CCOCC2)c1` [Example 950, N-(3-(6-isopropoxy-5-morpholinopyridin-3-yl)-4-methylphenyl)-2-(methylsulfonyl)isonicotinamide] belongs 0.47 nM; to `Cc1ccc(NC(=O)c2cncc(C(F)(F)F)c2)cc1-c1cnc(OC(C)C)c(N2CCOCC2)c1` [Example 951, N-(3-(6-isopropoxy-5-morpholinopyridin-3-yl)-4-methylphenyl)-5-(trifluoromethyl)nicotinamide], 0.31 nM. Take `Cc1ncc(NC(=O)c2ccnc(C(C)(F)F)c2)cc1-c1cnc(OC(C)C)c(N2CCOCC2)c1` [Example 952, 2-(1,1-difluoroethyl)-N-(6′-isopropoxy-2-methyl-5′-morpholino-[3,3′-bipyridin]-5-yl)isonicotinamide]: the IC50 was found to be 1.98 nM. For `Cc1ncc(NC(=O)c2ccnc(C(C)(C)F)c2)cc1-c1cnc(OC(C)C)c(N2CCOCC2)c1` [Example 953, 2-(2-fluoropropan-2-yl)-N-(6′-isopropoxy-2-methyl-5′-morpholino-[3,3′-bipyridin]-5-yl)isonicotinamide], the IC50 was determined as 3.33 nM. As for `Cc1ncc(NC(=O)c2ccnc(C(C)(C)C#N)c2)cc1-c1cnc(OC(C)C)c(N2CCOCC2)c1` [Example 954, 2-(2-cyanopropan-2-yl)-N-(6′-isopropoxy-2-methyl-5′-morpholino-[3,3′-bipyridin]-5-yl)isonicotinamide], the IC50 worked out at 7.3 nM. Regarding `Cc1ncc(NC(=O)c2ccnc(C(C)(C)O)c2)cc1-c1cnc(OC(C)C)c(N2CCOCC2)c1` [Example 955, 2-(2-hydroxypropan-2-yl)-N-(6′-isopropoxy-2-methyl-5′-morpholino-[3,3′-bipyridin]-5-yl)isonicotinamide], the IC50 came to 18.1 nM. `Cc1ncc(NC(=O)c2cc(C(C)(F)F)ccn2)cc1-c1cnc(OC(C)C)c(N2CCOCC2)c1` [Example 956, 4-(1,1-difluoroethyl)-N-(6′-isopropoxy-2-methyl-5-morpholino-[3,3′-bipyridin]-5-yl)picolinamide]: the IC50 was determined as 2.94 nM. In the case of `Cc1ncc(NC(=O)c2cc(C(C)(C)F)ccn2)cc1-c1cnc(OC(C)C)c(N2CCOCC2)c1` [Example 957, 4-(2-fluoropropan-2-yl)-N-(6′-isopropoxy-2-methyl-5′-morpholino-[3,3′-bipyridin]-5-yl)picolinamide], the IC50 was 6.23 nM. Turning to `Cc1ncc(NC(=O)c2cc(C(C)(C)C#N)ccn2)cc1-c1cnc(OC(C)C)c(N2CCOCC2)c1` [Example 958, 4-(2-cyanopropan-2-yl)-N-(6′-isopropoxy-2-methyl-5′-morpholino-[3,3′-bipyridin]-5-yl)picolinamide], the IC50 was 9.15 nM. In the case of `Cc1ncc(NC(=O)c2cncc(C(F)(F)F)c2)cc1-c1cnc(OC(C)C)c(N2CCOCC2)c1` [Example 960, N-(6′-isopropoxy-2-methyl-5′-morpholino-[3,3′-bipyridin]-5-yl)-5-(trifluoromethyl)nicotinamide], the IC50 stood at 2.66 nM.
